Assay results published in patent publication US20220168315A1, “COMPOUNDS AND THERAPEUTIC USES THEREOF” (priority 2019, published 2022).
pKd: −log10 of the molar value.

Molecular target: T1, PIKfyve (Homo sapiens, UniProt Q9Y2I7)
T1 construct: T7 phage fusion (kinase-tagged phage) or DNA tag for qPCR; made in house; host or cells: E. coli BL21-derived host (T7 phage) for most kinases, HEK-293 for the rest
Assay: Kinase binding assay (kinase-tagged T7 phage, affinity beads, qPCR readout), Kd determination
Conditions: 11-point 3-fold dilution series
Method: Kinase assays. For most assays, kinase-tagged T7 phage strains were prepared in an E. coli host derived from the BL21 strain. E. coli were grown to log-phase and infected with T7 phage and incubated with shaking at 32° C. until lysis. The lysates were centrifuged and filtered to remove cell debris. The remaining kinases were produced in HEK-293 cells and subsequently tagged with DNA for qPCR detection. Streptavidin-coated magnetic beads were treated with biotinylated small molecule ligands for 30 minutes at room temperature to generate affinity resins for kinase assays. The liganded beads were blocked with excess biotin and washed with blocking buffer (SeaBlock (Pierce), 1% BSA, 0.05% Tween 20, 1 mM DTT) to remove unbound ligand and to reduce non-specific binding. Binding reactions were assembled by combining kinases, liganded affinity beads, and test compounds in 1× binding buffer (20% SeaBlock, 0.17×PBS, 0.05% Tween 20, 6 mM DTT). Test compounds were prepared as 111× stocks in 100% DMSO. Kds were determined using an 11-point 3-fold compound dilution series with three DMSO control points. All compounds for Kd measurements are distributed by acoustic transfer (non-contact dispensing) in 100% DMSO. The compounds were then diluted directly into the assays such that the final concentration of DMSO was 0.9%. All reactions performed in polypropylene 384-well plate. Each was a final volume of 0.02 ml. The assay plates were incubated at room temperature with shaking for 1 hour and the affinity beads were washed with wash buffer (1×PBS, 0.05% Tween 20). The beads were then re-suspended in elution buffer (1×PBS, 0.05% Tween 20, 0.5 μM non-biotinylated affinity ligand) and incubated at room temperature with shaking for 30 minutes. The kinase concentration in the eluates was measured by qPCR.
An 11-point 3-fold serial dilution of each test compound was prepared in 100% DMSO at 100× final test concentration and subsequently diluted to 1× in the assay (final DMSO concentration=1%). Most Kds were determined using a compound top concentration=30,000 nM. If the initial Kd determined was <0.5 nM (the lowest concentration tested), the measurement was repeated with a serial dilution starting at a lower top concentration.

T1 sequence (Q9Y2I7 whole entry, the tested form may be a part): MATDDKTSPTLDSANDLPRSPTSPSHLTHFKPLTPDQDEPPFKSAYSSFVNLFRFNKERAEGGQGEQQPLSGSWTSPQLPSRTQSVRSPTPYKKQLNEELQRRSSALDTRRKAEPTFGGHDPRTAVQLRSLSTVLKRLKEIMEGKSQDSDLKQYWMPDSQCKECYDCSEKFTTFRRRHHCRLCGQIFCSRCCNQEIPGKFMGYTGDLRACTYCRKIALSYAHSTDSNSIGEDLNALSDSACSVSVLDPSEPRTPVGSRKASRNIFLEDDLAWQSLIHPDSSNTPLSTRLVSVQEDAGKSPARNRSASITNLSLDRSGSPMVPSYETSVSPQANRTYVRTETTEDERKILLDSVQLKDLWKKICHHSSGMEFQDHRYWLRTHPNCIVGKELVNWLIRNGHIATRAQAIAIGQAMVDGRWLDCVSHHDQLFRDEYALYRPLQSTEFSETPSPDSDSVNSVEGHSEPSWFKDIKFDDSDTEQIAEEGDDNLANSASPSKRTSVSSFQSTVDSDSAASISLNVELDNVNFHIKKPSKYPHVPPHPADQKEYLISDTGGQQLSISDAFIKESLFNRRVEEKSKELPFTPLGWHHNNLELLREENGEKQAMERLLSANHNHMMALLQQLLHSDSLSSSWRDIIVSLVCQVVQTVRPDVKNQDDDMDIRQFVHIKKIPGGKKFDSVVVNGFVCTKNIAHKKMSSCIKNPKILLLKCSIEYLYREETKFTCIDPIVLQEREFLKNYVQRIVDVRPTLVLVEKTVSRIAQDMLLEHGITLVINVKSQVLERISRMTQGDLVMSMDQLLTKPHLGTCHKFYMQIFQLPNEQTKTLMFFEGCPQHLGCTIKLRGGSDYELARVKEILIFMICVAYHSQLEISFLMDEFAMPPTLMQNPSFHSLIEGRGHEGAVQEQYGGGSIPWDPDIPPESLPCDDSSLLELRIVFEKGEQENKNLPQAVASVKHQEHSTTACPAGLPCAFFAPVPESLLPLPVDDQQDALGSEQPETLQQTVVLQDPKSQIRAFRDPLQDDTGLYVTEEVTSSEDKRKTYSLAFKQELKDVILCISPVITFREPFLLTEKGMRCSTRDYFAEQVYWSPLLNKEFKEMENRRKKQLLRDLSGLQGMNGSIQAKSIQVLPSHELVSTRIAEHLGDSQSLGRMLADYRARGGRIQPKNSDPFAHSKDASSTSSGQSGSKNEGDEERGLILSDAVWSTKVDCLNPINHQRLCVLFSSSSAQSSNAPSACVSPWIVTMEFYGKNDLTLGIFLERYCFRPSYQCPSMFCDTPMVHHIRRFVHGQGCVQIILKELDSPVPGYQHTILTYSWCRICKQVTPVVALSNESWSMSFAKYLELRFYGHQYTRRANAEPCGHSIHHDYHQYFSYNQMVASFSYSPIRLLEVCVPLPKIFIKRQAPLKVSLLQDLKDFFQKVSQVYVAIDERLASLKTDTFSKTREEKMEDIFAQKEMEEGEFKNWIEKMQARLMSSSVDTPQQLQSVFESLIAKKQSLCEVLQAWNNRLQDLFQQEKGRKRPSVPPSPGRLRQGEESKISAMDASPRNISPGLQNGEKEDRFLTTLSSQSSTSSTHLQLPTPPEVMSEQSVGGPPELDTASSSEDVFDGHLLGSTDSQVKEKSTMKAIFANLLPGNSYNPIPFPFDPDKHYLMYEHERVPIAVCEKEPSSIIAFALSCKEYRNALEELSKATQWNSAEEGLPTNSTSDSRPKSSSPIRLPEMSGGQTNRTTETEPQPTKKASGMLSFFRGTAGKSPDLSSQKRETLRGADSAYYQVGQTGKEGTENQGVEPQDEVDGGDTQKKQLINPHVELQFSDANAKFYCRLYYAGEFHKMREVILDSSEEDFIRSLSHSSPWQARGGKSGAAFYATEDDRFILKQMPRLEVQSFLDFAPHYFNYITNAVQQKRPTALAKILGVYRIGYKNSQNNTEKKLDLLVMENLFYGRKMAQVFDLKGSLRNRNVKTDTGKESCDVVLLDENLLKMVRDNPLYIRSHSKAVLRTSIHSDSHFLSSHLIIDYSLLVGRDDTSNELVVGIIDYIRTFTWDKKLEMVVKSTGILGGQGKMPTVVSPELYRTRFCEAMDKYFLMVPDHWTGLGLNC

| pKd | Structure (SMILES) |
| --- | --- |
| 8.00 to 8.30 | CCNC(=O)N1Cc2nc(N/N=C/c3cccc(C)c3)nc(N3CCOCC3)c2C1 [Example 1, N-ethyl-4-morpholino-2-[(2E)-2-(m-tolylmethylene)hydrazino]-5,7-dihydropyrrolo[3,4-d]pyrimidine-6-carboxamide] |
| 8.00 to 8.30 | Cc1cccc(/C=N/Nc2nc3c(c(N4CCOCC4)n2)CN(C(=O)Nc2ccc(F)cc2)C3)c1 [Example 2, N-(4-Fluorophenyl)-4-morpholino-2-[(2E)-2-(m-tolylmethylene)hydrazino]-5,7-dihydropyrrolo[3,4-d]pyrimidine-6-carboxamide] |
| 8.30 to 9.00 | Cc1cccc(/C=N/Nc2nc3c(c(N4CCOCC4)n2)CN(C(=O)Nc2cccnc2)C3)c1 [Example 3, 4-Morpholino-2-[(2E)-2-(m-tolylmethylene)hydrazino]-N-(3-pyridyl)-5,7-dihydropyrrolo[3,4-d]pyrimidine-6-carboxamide] |
| 8.30 to 9.00 | Cc1cccc(/C=N/Nc2nc3c(c(N4CCOCC4)n2)CN(C(=O)NC2CCCC2)C3)c1 [Example 4, N-cyclopentyl-4-morpholino-2-[(2E)-2-(m-tolylmethylene)hydrazino]-5,7-dihydropyrrolo[3,4-d]pyrimidine-6-carboxamide] |
| 8.30 to 9.00 | Cc1cccc(/C=N/Nc2nc3c(c(N4CCOCC4)n2)CN(C(=O)NC2CCC2)C3)c1 [Example 5, N-cyclobutyl-4-morpholino-2-[(2E)-2-(m-tolylmethylene)hydrazino]-5,7-dihydropyrrolo[3,4-d]pyrimidine-6-carboxamide] |
| 7.00 to 7.22 | O=C(Nc1cccnc1)N1Cc2nc(N/N=C/c3cccc(O)c3)nc(N3CCOCC3)c2C1 [Example 6, 2-[(2E)-2-[(3-hydroxyphenyl)methylene]hydrazino]-4-morpholino-N-(3-pyridyl)-5,7-dihydropyrrolo[3,4-d]pyrimidine-6-carboxamide] |
| 7.22 to 8.00 | O=C(Nc1cccnc1)N1Cc2nc(N/N=C/c3cccc(Cl)c3)nc(N3CCOCC3)c2C1 [Example 7, 2-[(2E)-2-[(3-chlorophenyl)methylene]hydrazino]-4-morpholino-N-(3-pyridyl)-5,7-dihydropyrrolo[3,4-d]pyrimidine-6-carboxamide] |
| 5.70 to 7.00 | O=C(Nc1cccnc1)N1Cc2nc(N/N=C/c3cccc(C(F)(F)F)c3)nc(N3CCOCC3)c2C1 [Example 8, 4-morpholino-N-(3-pyridyl)-2-[(2E)-2-[[3-(trifluoromethyl)phenyl]methylene]hydrazino]-5,7-dihydropyrrolo[3,4-d]pyrimidine-6-carboxamide] |
| 8.30 to 9.00 | Cc1cccc(/C=N/Nc2nc3c(c(N4CCOCC4)n2)CN(Cc2cccnc2)C3)c1 [Example 10, 4-morpholino-N-[(E)-m-tolylmethyleneamino]-6-(3-pyridylmethyl)-5,7-dihydropyrrolo[3,4-d]pyrimidin-2-amine] |
| 7.22 to 8.00 | Cc1cccc(/C=N/Nc2nc3c(c(N4CCOCC4)n2)CN(Cc2ccccn2)C3)c1 [Example 11, 4-morpholino-N-[(E)-m-tolylmethyleneamino]-6-(2-pyridylmethyl)-5,7-dihydropyrrolo[3,4-d]pyrimidin-2-amine] |
| ≥ 9.00 | Cc1cccc(/C=N/Nc2nc3c(c(N4CCOCC4)n2)CN(S(=O)(=O)c2cn(C)cn2)C3)c1 [Example 15, 6-(1-methylimidazol-4-yl)sulfonyl-4-morpholino-N-[(E)-m-tolylmethyleneamino]-5,7-dihydropyrrolo[3,4-d]pyrimidin-2-amine] |
| 8.30 to 9.00 | Cc1cccc(/C=N/Nc2nc3c(c(N4CCOCC4)n2)CN(S(=O)(=O)c2cccc(C(=O)O)c2)C3)c1 [Example 16, 3-[[4-morpholino-2-[(2E)-2-(m-tolylmethylene)hydrazino]-5,7-dihydropyrrolo[3,4-d]pyrimidin-6-yl]sulfonyl]benzoic acid] |
| 8.30 to 9.00 | Cc1cccc(/C=N/Nc2nc3c(c(N4CCOCC4)n2)CN(S(=O)(=O)c2ccc(C(=O)O)cc2)C3)c1 [Example 17, 4-[[4-morpholino-2-[(2E)-2-(m-tolylmethylene)hydrazino]-5,7-dihydropyrrolo[3,4-d]pyrimidin-6-yl]sulfonyl]benzoic acid] |
| 8.30 to 9.00 | Cc1cccc(/C=N/Nc2nc3c(c(N4CCOCC4)n2)CN(S(=O)(=O)c2cccnc2)C3)c1 [Example 19, 4-morpholino-N-[(E)-m-tolylmethyleneamino]-6-(3-pyridylsulfonyl)-5,7-dihydropyrrolo[3,4-d]pyrimidin-2-amine] |
| ≥ 9.00 | Cc1cccc(/C=N/Nc2nc3c(c(N4CCOCC4)n2)CN(S(=O)(=O)c2c(C)n[nH]c2C)C3)c1 [Example 20, 6-[(3,5-dimethyl-1H-pyrazol-4-yl)sulfonyl]-4-morpholino-N-[(E)-m-tolylmethyleneamino]-5,7-dihydropyrrolo[3,4-d]pyrimidin-2-amine] |
| 8.30 to 9.00 | Cc1cccc(/C=N/Nc2nc3c(c(N4CCOCC4)n2)CN(S(=O)(=O)N(C)C)C3)c1 [Example 21, N,N-dimethyl-4-morpholino-2-[(2E)-2-(m-tolylmethylene)hydrazino]-5,7-dihydropyrrolo[3,4-d]pyrimidine-6-sulfonamide] |
| 8.30 to 9.00 | Cc1cccc(/C=N/Nc2nc3c(c(N4CCOCC4)n2)CN(S(=O)(=O)c2c(C)noc2C)C3)c1 [Example 22, 6-(3,5-dimethylisoxazol-4-yl)sulfonyl-4-morpholino-N-[(E)-m-tolylmethyleneamino]-5,7-dihydropyrrolo[3,4-d]pyrimidin-2-amine] |
| 8.30 to 9.00 | Cc1cccc(/C=N/Nc2nc3c(c(N4CCOCC4)n2)CN(c2ncccn2)C3)c1 [Example 23, 4-morpholino-N-[(E)-m-tolylmethyleneamino]-6-pyrimidin-2-yl-5,7-dihydropyrrolo[3,4-d]pyrimidin-2-amine] |
| 8.30 to 9.00 | Cc1cccc(/C=N/Nc2nc3c(c(N4CCOCC4)n2)CN(c2ccncn2)C3)c1 [Example 24, 4-morpholino-N-[(E)-m-tolylmethyleneamino]-6-pyrimidin-4-yl-5,7-dihydropyrrolo[3,4-d]pyrimidin-2-amine] |
| 8.30 to 9.00 | Cc1cccc(/C=N/Nc2nc3c(c(N4CCOC[C@@H]4C)n2)CN(c2ncccn2)C3)c1 [Example 25, 4-[(3S)-3-methylmorpholin-4-yl]-N-[(E)-m-tolylmethyleneamino]-6-pyrimidin-2-yl-5,7-dihydropyrrolo[3,4-d]pyrimidin-2-amine] |
| 8.00 to 8.30 | Cc1cccc(/C=N/Nc2nc3c(c(N4CCOC[C@H]4C)n2)CN(c2ncccn2)C3)c1 [Example 26, 4-[(3R)-3-methylmorpholin-4-yl]-N-[(E)-m-tolylmethyleneamino]-6-pyrimidin-2-yl-5,7-dihydropyrrolo[3,4-d]pyrimidin-2-amine] |
| 8.30 to 9.00 | Cc1cccc(/C=N/Nc2nc3c(c(N4CCOCC4)n2)CN(C(=O)NC2COC2)C3)c1 [Example 27, 4-morpholino-2-[(2E)-2-(m-tolylmethylene)hydrazino]-N-(oxetan-3-yl)-5,7-dihydropyrrolo[3,4-d]pyrimidine-6-carboxamide] |
| 8.00 to 8.30 | Cc1cccc(/C=N/Nc2nc3c(c(N4CCOCC4)n2)CN(C(=O)NC2CNC2)C3)c1 [Example 28, N-(azetidin-3-yl)-4-morpholino-2-[(2E)-2-(m-tolylmethylene)hydrazino]-5,7-dihydropyrrolo[3,4-d]pyrimidine-6-carboxamide] |
| 8.00 to 8.30 | Cc1cccc(/C=N/Nc2nc3c(c(N4CCOCC4)n2)CCN(S(=O)(=O)c2c(C)n[nH]c2C)C3)c1 [Example 29, 7-[(3,5-dimethyl-1H-pyrazol-4-yl)sulfonyl]-4-morpholino-N-[(E)-m-tolylmethyleneamino]-6,8-dihydro-5H-pyrido[3,4-d]pyrimidin-2-amine] |
| ≥ 9.00 | Cc1cccc(-c2cc(O)n(-c3nc(N4CCOCC4)c4sc(-c5ccncc5)cc4n3)n2)c1 [Example 33, 2-[4-morpholino-6-(4-pyridyl)thieno[3,2-d]pyrimidin-2-yl]-5-(m-tolyl)pyrazol-3-ol methane sulfonate] |
| 8.00 to 8.30 | COc1cccc(-c2cc(O)n(-c3nc(N4CCOCC4)c4sc(-c5ccncc5)cc4n3)n2)c1 [Example 34, 5-(3-methoxyphenyl)-2-[4-morpholino-6-(4-pyridyl)thieno[3,2-d]pyrimidin-2-yl]pyrazol-3-ol] |
| 5.70 to 7.00 | Cc1cccc(-c2cc(O)n(-c3nc4c(c(N5CCOCC5)n3)CN(S(=O)(=O)c3c(C)noc3C)C4)n2)c1 [Example 37, 2-[6-(3,5-dimethylisoxazol-4-yl)sulfonyl-4-morpholino-5,7-dihydropyrrolo[3,4-d]pyrimidin-2-yl]-5-(m-tolyl)pyrazol-3-ol] |
| 8.00 to 8.30 | Cc1cccc(-c2cc(O)n(-c3nc4c(c(N5CCOCC5)n3)CN(C(=O)Nc3cccnc3)C4)n2)c1 [Example 38, 2-[5-hydroxy-3-(m-tolyl)pyrazol-1-yl]-4-morpholino-N-(3-pyridyl)-5,7-dihydropyrrolo[3,4-d]pyrimidine-6-carboxamide methane sulfonate] |
